Assay [1] addresses T1, thrombin (Homo sapiens, UniProt P00734). Briefly: Fluorogenic NW assay with recombinant thrombin. In kind it is biochemical. More on the design: with recombinant thrombin (15 nM; Haematologic Technologies); purchased Haematologic Technologies. The conditions noted are these: inhibitor 100 μM.
Another assay addresses T2, MMP9 (Homo sapiens, UniProt P14780).
T2 construct: purchased R&D Systems
Briefly: Fluorogenic NW assay with recombinant MMP9. In kind it is biochemical. Particulars: inhibitor 100 μM. As to the method: Fluorescent reporter-bound thrombin- or MMP-sensitive NWs (substrates PLGLRSW, SEQ ID NO: 3, or PLGVRGK, SEQ ID NO: 4, respectively) were introduced to recombinant thrombin or MMP9 (respectively). Release of homoquenched fluorophores upon proteolysis was read as increased fluorescence by plate reader at 37° C. Inhibitors Argatroban or Marimastat were incubated with the protease-NW cocktail at 100 μM. To quantify reporter release by LFA, reporter-functionalized NWs were incubated with cognate proteases, passed through a 30 kDa MW cutoff filter, quantified by LFA, and analyzed by Mann-Whitney test.
(SpectroMax Gemini EM microplate reader). Argatroban (Sigma) or Marimastat (Tocris) were incubated with the NW-protease cocktail at 100 μM final concentration. To assay proteolytic reporter release by LFA, reporter-functionalized enzyme sensitive NWs were incubated with MMP9 or thrombin as above at 37° C. for four hours and passed through a 30 kDa MW cutoff centrifugal filter. The filtered reporters were diluted to within LFA dynamic range and assayed by LFA as described below. Reporter stability experiments were performed using reporter 3 (1 μM) mixed in 1% w/v BSA with recombinant thrombin or MMP9 (both 15 nM) as above to 100 μL final volume and were incubated at 37° C. for 1 h. […]

In another assay the test system is MMP. Put plainly: Urinary reporters in LS174T colorectal tumor model by ELISA and LFA. The class given is in vivo, mice. Particulars: urine test, ELISA. A general note: An ELISA detects its analyte on a solid surface through an enzyme-linked reagent.
For assay [2], the target named is T3, thrombin (Mus musculus, UniProt P19221).
T3 construct: from tissue; host or cells: blood and pulmonary thrombi of live Swiss Webster mice (thromboplastin or collagen/epinephrine induced)
Briefly: Urinary reporters in collagen/epinephrine thrombosis model by ELISA and LFA. In kind it is in vivo, mice. As to the method: Collection and analysis of urinary peptides. […] Urine collection times were optimized from previous studies using these disease models^[30, 31] and are dependent on site of disease and rate of enzymatic substrate cleavage. Reporter concentration in unprocessed urine was assayed by above protocols from urine diluted 1:10^2L10^4 for ELISA or 1:4-5 for LFA. Data was analyzed using receiver-operator characteristic (ROC) curves (both) and Wilcoxon signed rank test (CRC) or Mann-Whitney test (thrombosis).
Immediately following infusion, mice were placed over 96-well plates enclosed by a cylindrical tube to collect urine for 30 m (thrombosis model) or 1 h (tumor model). Urine collection times were optimized from previous studies using these disease models^[30, 31] and are dependent on site of disease and rate of enzymatic substrate cleavage. Urine was stored at −80° C. directly following collection.
Unprocessed urine was diluted (1:100-1:10,000) in 1× PBS with 1% w/v BSA and reporters were quantified by ELISA (at least 2 replicates) using standards as described above. Urine was applied to lateral flow test strips in 5 μL volume, at 1:4 (thrombosis model) or 1:5 (CRC model) dilution. Lateral flow tests were performed in triplicate as described above and test strips were allowed to dry and were quantified by automated script as described above. ELISA and LFA data was analyzed using a Wilcoxon signed rank test (CRC) and a Mann-Whitney test (thrombosis).
Urine concentration is dependent on many host and environmental factors (e.g. diet, activity level, medical history, circadian rhythm); therefore, we sought to develop a normalization strategy for the test. It was hypothesized that co-administered free reporters would pass into the urine independent of disease state and could be used to normalize the level of reporters released by protease activity.

For assay [3], the target named is T1, thrombin. The class given is biochemical. Particulars: R3 in tandem with thrombin-sensitive substrate on NWs; vs samples not exposed to thrombin. Also noted: with recombinant thrombin (15 nM; Haematologic Technologies); purchased Haematologic Technologies.
Excerpt: Following in vitro substrate cleavage by thrombin, the peptide fragments were collected by size-exclusion filtration.
The subject of the next assay is Swiss Webster mice. Briefly: Thromboplastin-induced thrombosis, VT750-fibrin(ogen) deposition in organs. In kind it is in vivo. The conditions noted are these: bivalirudin 10 mg/kg i.v. five minutes prior to thromboplastin. As to the method:
Characterization of thromboplastin-induced thrombosis: Each vial of thromboplastin containing 3-4 mg (from rabbit brain, Sigma) was dissolved in 2 mL of PBS. To quantify fibrin deposition, bovine fibrinogen (Sigma) was reacted with 3-fold molar excess of VT750 for 1 hr at RT, and purified by centrifugal size filtration (size cutoff, Millipore). Swiss Webster mice (Taconic) were lightly anesthetized with isofluorane and administered mixtures of VT750-fibrinogen (1 nmol by VT750) with thromboplastin (n=3 mice per dose) via tail vein injections. After 30 minutes, mice were euthanized by CO2 asphyxiation and organs were scanned on the LI-COR Odyssey Infrared Imaging System. Fibrin(ogen) fluorescence in each organ was quantified using ImageJ software (NIH). To test thrombin inhibition, mice were intravenously administered bivalirudin (10 mg/kg) five minutes prior to co-injection of thromboplastin. […]
We next investigated the ability of the synthetic biomarkers to detect thrombosis in living mice induced via intravenous (i.v.) administration of thromboplastin. […] To quantify PE formation, mice were co-injected with thromboplastin and the clot precursor fibrinogen (labeled with the near-infrared fluorophore VT750) so that the formation of fibrin clots by thrombin-mediated proteolysis of fibrinogen could be quantified by fluorescence analysis of whole organs (FIG. 3A). […]

Assay [4] has as its target T3, thrombin. Put plainly: Urinary monitoring of thromboplastin-induced thrombosis by ELISA. The class given is in vivo, mice. Particulars: bivalirudin 10 mg/kg; thromboplastin 2 μl per g b.w. As to the method:
ELISA detection of bifunctionalized reporters: 96-well plates (Thermo Scientific) were incubated with either 0.8 μg/mL of anti-Flsc (GeneTex, GTX19224) or 0.4 μg/mL of anti-Alex Fluor 488 (Invitrogen, A11094) diluted in PBS overnight at 4° C. Plates were blocked with 1% w/v bovine serum albumin (Sigma) in PBS for 1 hr before 100 μL of samples were added. Reporters captured on the plate were then detected by adding 100 μL of 0.2 μg/mL neutravidin-HRP (Pierce), developed with 50 μL TMB solution (Thermo Scientific) for 5-15 minutes and quenched with 50 μL of HCl before the absorbance of the wells was determined by microplate analysis (SpectraMax Plus, Molecular Devices) at 450 nm. Plates were washed 3× with PBST between each steps and incubation occurred at RT unless otherwise stated.
Urinary monitoring of thrombosis. Experiments were conducted in a paired setup. […] Urine samples were stored at −80° C. until ELISA analysis.
The concentration of analytes in the urine is mainly dependent on the hydration state of the host (ranging from 50-1200 mOsm/kg H2O in humans)^[20] and is affected by many external factors (e.g. circadian rhythm, diet, activity, and others). […]

Assay [5] deals with T1, thrombin. Put plainly: Fluorogenic NW assay with purified thrombin. The conditions noted are these: bivalirudin 5 mg/mL, pre-incubated two minutes. The class given is biochemical. More on the design: mixed with human thrombin (2 μM); purchased Haematologic Technologies.
Description: In vitro protease assays: NWs (200 nM by peptide) were mixed with human thrombin (2 μM), FVIIa (10 nM), FIXa (90 nM), FXa (160 nM), FXIa (31 nM), and activated protein C (60 nM, Haematologic Technologies) in a 384-well plate at 37° C. in activity buffers according to the manufacturer's instructions and monitored with a microplate reader (SpectroMax Gemini EM). […] For thrombin inhibition experiments, bivalirudin (Anaspec) was added to a final concentration of 5 mg/mL and pre-incubated for two minutes prior to addition of NWs.
To test substrate specificity, fluorophore-labeled derivatives were conjugated onto NWs at a valency sufficient to produce homoquenched substrates (˜40 peptides per NW) and then incubated the NWs with purified thrombin or a panel of blood clotting proteases (FXa, APC, FIXa, FVIIa, FXIa), each present at its maximal physiological concentration during thrombosis (FIG. 1B).

Where no end group is shown, it is not given here.

T2 sequence (P14780 94-707, species assumed): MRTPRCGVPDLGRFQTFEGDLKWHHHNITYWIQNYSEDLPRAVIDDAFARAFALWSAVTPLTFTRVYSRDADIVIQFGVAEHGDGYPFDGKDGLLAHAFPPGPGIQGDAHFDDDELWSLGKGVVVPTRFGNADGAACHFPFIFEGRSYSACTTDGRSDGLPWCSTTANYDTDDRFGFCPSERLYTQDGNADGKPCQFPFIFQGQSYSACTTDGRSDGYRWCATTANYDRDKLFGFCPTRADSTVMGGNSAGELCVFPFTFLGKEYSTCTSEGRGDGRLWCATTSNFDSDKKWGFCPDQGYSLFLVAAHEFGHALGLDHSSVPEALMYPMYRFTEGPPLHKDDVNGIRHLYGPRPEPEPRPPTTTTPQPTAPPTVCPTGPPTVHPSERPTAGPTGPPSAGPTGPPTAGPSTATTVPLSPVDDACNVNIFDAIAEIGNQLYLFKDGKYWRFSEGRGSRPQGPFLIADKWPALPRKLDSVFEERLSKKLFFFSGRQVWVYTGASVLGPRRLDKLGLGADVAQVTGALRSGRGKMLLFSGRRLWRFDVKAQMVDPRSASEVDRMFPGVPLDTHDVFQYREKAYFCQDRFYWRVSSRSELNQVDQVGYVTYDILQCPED

Turning to `CC1CNc2c(cccc2S(=O)(=O)N[C@@H](CCCNC(=N)N)C(=O)N2CC[C@@H](C)C[C@@H]2C(=O)O)C1` (stereo partly shown) [Argatroban], the “fluorescence of thrombin-sensitive NWs with thrombin in presence of inhibitor” value at thrombin [1] was “No increase in fluorescence”.

Consider `CNC(=O)[C@@H](NC(=O)[C@H](CC(C)C)[C@H](O)C(=O)NO)C(C)(C)C` [Marimastat], for which the “activity of MMP9 on MMP-sensitive NWs in presence of inhibitor” value on MMP9 was “no activity”.

For “MMP-sensitive NWs: PEG-coated iron oxide nanoworms with MMP9-cleavable substrate PLGVRGK and fluorescein, VT750 or R2 reporter (also: on PEG-coated iron oxide nanoworms, fluorescein, VT750 or R2 reporter)”, the “ROC a.u.c, discrimination of CRC” value with MMP amounted to 0.90.

In the case of TMR-GluFib-Biotin [Reporter R3], the “urinary level of reporter normalized against R4 in mice harboring thrombi” value at thrombin [2] (ELISA) is “significantly increased”. In addition, the “urinary level of reporter of thrombin activity in mice harboring thrombi” value at thrombin [2] (ELISA, quantified independently) was “significantly increased”. The “ratio of R3/R4 in diseased urine vs healthy controls” value on thrombin [2] (multiplexed paper strip (LFA)) was “statistically significant increase”. In addition, the “detection of cleaved reporter from filtrate by LFA after thrombin cleavage” value on thrombin [3] was “readily detected”.

bivalirudin: the “formation of PEs in pretreated animals” value in the assay on Swiss Webster mice is on record as “readily prevented”. Further, the “urinary reporter levels in mice treated with inhibitor prior to thrombotic challenge” value at thrombin [4] is given as “abrogated”. The “proteolysis of NWs by thrombin in the presence of inhibitor” value on thrombin [5] is recorded as “negligible proteolysis”.

For the origin of these results see patent US11977074B2, “Affinity-based detection of ligand-encoded synthetic biomarkers” (Massachusetts Institute of Technology, priority 2013, dated 2024).
